Assay results taken from patent US4221782A (priority 1978, dated 1980).
Like-named read-outs stand apart in the source and are kept apart here.

What was measured:
threespine stickleback = test system: threespine stickleback; set-up: species or system Gasterosteus aculeatus; conditions: in vivo
stickleback [1] = test system: stickleback
Text: For water with different chemistry and for application of different concentrations of the azide the delay time of application of deactivator could vary.

sockeye salmon = test system: sockeye salmon
Experimental: Fingerling sockeye salmon in artesian water were exposed to a concentration of 5 mg/l of potassium azide for 24 hours at a temperature of 15 degrees Celsius.
Ten sockeye (length range, 55-93 mm) were assigned to each of four aquaria (load, 2.7 g/l) and concentrations of chemicals were added as indicated in Table 8. The time of mortality was noted.

cutthroat trout = experiment: Toxicity to cutthroat trout, 96-hour bioassays; format: in vivo, Salmo clarki
chinook salmon = experiment: Example 4: LC0 of chinook, artesian well water, 96-hour bioassays; format: in vivo, O. tschawytscha; conditions: for LC0 of chinook: artesian well water, 96-hour
Text: The desirable fishes tested in bioassays included the sockeye salmon (Oncorhynchus nerka), chinook salmon, (O. tschawytscha) and the steelhead, a sea-run variety of rainbow trout (Salmo gairdneri).

[2] = test system: freshwater races of rainbow trout; experiment: Toxicity to rainbow trout, 96-hour bioassays; format: in vivo, Salmo gairdneri
rats [3] = conditions: cited from earlier work
stickleback [4] = test system: stickleback; remark: listed apart in the source
Experimental: For field applications the concentration of NaN3 or N3 -- would vary with water quality--mainly with regard to dissolved solid and hydrogen ion concentrations. […] For the treatment of rivers and shorelines of lakes the concentrations of azide that would be used would be those that would kill stickleback in 12 to 24 hours.

sockeye [5] = experiment: Example 5: survival/recovery of sockeye after exposure to sodium azide, 20-day bioassays; format: in vivo, Oncorhynchus nerka; conditions: exposed for 16 hours or less
Text: (§1) Stickleback subjected to the same test conditions experienced almost 100% mortality.

[6] = as above; format: in vivo, Oncorhynchus nerka; conditions: sockeye salmon, in vivo; exposed for 16 hours or less; end of 20-day bioassays
Text: as §1

sockeye [7] = conditions: in vivo
torrent sculpin = experiment: Toxicity to torrent sculpin, 96-hour bioassays; format: in vivo, Cottus rotheus
rats [8] = experiment: Lowest published lethal oral dose in rats (1974 Toxic Substances List); format: in vivo, rat; conditions: water treated at 1 mg/l of azide
Experimental: It would be impossible for a bird or mammal to drink enough water when treated at 1 mg/l of azide for the azide to harm the animal. To drink a lethal dose, an animal would have to drink 46 times its weight in water. Nevertheless safety precautions should be taken when handling the chemical.

bridgelip sucker = experiment: Toxicity to bridgelip sucker, 96-hour bioassays; format: in vivo, Catastomus columbianus
speckled dace = experiment: Toxicity to speckled dace, 96-hour bioassays; format: in vivo, Rhinichthys cataractae
redside shiner = experiment: Toxicity to redside shiner, 96-hour bioassays; format: in vivo, Richardsonius balteatus
stickleback [9] = experiment: Exploratory test with azidotrimethylsilicane; format: in vivo; conditions: relative to other azides
[10] = test system: threespine stickleback and sockeye salmon; conditions: increases in temperature
Experimental: Delineation bioassays determined primarily the LC50 and LC100 of stickleback and the LC0 and LC50 of salmonids.
Stickleback (mean length, 44 mm) and sockeye (mean length, 74 mm) in artesian well water were treated with various concentrations of potassium azide in laboratory facilities for 96 hours at 5, 10 and 15 degrees Celsius to determine approximate selectivity and safety indices.

[11] = up to 5.0 mg/l in artesian well water

calcium chloride
toxicity of azide in standing water and duration of its potency (threespine stickleback): can be controlled
delay in application of calcium chloride necessary for maximizing the kill of stickleback (stickleback [1]; 5 mg/l potassium azide, artesian water): 2 h
death time for stickleback (stickleback [1]; calcium chloride and potassium azide added about simultaneously): about doubled
Survival time (sockeye salmon; 3.5 mg/l calcium chloride (1 equivalent weight) after 24 h at 5 mg/l potassium azide): 90 h
Survival time (sockeye salmon; 7.0 mg/l calcium chloride (2 equivalent weights) after 24 h at 5 mg/l potassium azide): 112 h
Survival time (sockeye salmon; 14.0 mg/l calcium chloride (4 equivalent weights) after 24 h at 5 mg/l potassium azide): 148 h
effect on mortality of sockeye exposed to 5 mg/l potassium azide for 24 hours (sockeye salmon; 1, 2, 4, and 8 equivalent weights): delayed the mortality
survival of all sockeye in the azide (sockeye salmon; 8 equivalents of calcium chloride): complete survival of all sockeye
Survival time (sockeye salmon; […] calcium chloride (8 equivalent weights) after 24 h at 5 mg/l potassium azide): Did not die

[N-]=[N+]=[N-] [sodium azide]
toxicity (cutthroat trout; up to 1.5 mg/l in river water): not toxic
toxicity (cutthroat trout; [11]): not toxic
LC0 of chinook salmon compared with sockeye and steelhead (chinook salmon; allowing for the 0.8 differential): substantially greater than that of sockeye and steelhead
LC0 of chinook (chinook salmon; 5° C.): 10.0 mg/L
LC0 of chinook (chinook salmon; 10° C.): 8.0 mg/L
LC0 of chinook (chinook salmon; 15° C.): 8.0 mg/L
toxicity ([2]; up to 1.5 mg/l in river water): not toxic
toxicity [2, 11]: not toxic
LDL0, oral (lowest published lethal dose) (rats [3]): 46 mg for 2 kg of rat
toxicity to fish in river water as opposed to artesian water (stickleback [4]; allowing for the 0.8 differential between sodium and potassium azide): about 5 times
LC100 of stickleback (stickleback [4]; river water, 96-hour bioassays, 15 degrees Celsius): 0.34 mg/L
recovery of sockeye from ill effects (sockeye [5]): complete recovered from any ill effects
survival at 480 h [6]: 100%
mean times of death at about equal equivalents (sockeye [7]): about equal mean times of death
toxicity (torrent sculpin; up to 1.5 mg/l in river water): not toxic
toxicity (torrent sculpin; [11]): not toxic
amount of water to drink for a lethal dose (rats [8]): 46 times its weight
toxicity (bridgelip sucker; up to 1.5 mg/l in river water): not toxic
toxicity (bridgelip sucker; [11]): not toxic
toxicity (speckled dace; up to 1.5 mg/l in river water): not toxic
toxicity (speckled dace; [11]): not toxic
toxicity (redside shiner; up to 1.5 mg/l in river water): not toxic
toxicity (redside shiner; [11]): not toxic

[Cl][Sn][Cl] [stannous chloride]
toxicity of azide in standing water and duration of its potency (threespine stickleback): can be controlled

C[Si](C)(C)N=[N+]=[N-] [azidotrimethylsilicane]
biological activity/potency and selectivity of the azide radical in organic compounds (stickleback [9]): equally biologically active or potent and equally selective

[Ca+2].[I-].[I-] [calcium iodide]
azide neutralizing effectiveness (threespine stickleback): neutralized azide more effectively than calcium chloride
toxicity of azide in standing water and duration of its potency (threespine stickleback): can be controlled

potassium azide
effect of temperature on toxicity [10]: marked increase in the toxicity
